“Also recorded” adds a separate entry of the source.
How the values were obtained:
laccase [1] = assay: LMS and methadone: oxygen measurements; type: biochemical
[2] = tested on: Humicola insolens cutinase (HiC); type: biochemical
[3] = biological target: T1, Thermobifida cellulosilytica cutinase 1 (THC) (Thermobifida cellulosilytica, UniProt E9LVH8); type: biochemical
T1 construct: made in house
T1 sequence (E9LVH8 1-262): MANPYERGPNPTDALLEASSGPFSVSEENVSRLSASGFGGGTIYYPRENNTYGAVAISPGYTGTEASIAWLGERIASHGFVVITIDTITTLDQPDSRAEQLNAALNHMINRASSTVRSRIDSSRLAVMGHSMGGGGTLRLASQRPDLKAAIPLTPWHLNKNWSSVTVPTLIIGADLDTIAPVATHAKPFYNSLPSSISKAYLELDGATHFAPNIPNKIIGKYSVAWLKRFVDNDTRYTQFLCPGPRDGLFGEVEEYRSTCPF

laccase [4] = assay: Laccase mediator system (LMS) and oxycodone: oxygen concentration measurement; type: biochemical; settings: 10 units laccase ml−1, 1000 mgL−1 oxycodone; for oxygen concentration after the addition of oxycodone, per mediator: mediator 2 mM
Experimental: During the reaction oxygen acts as electron acceptor and is reduced to water by laccases while the mediators are oxidized. The concentration of oxygen was measured as described above. Oxygen is consumed until the mediator is fully oxidized. […] The second step of the reaction is initiated by addition of the target substrate, which is consequently oxidized by the mediators.
In the present experiments the final reaction mixtures contained 0.2 to 6 mM mediator, 1-10 units of laccase per ml and 100-3000 mg L^−1 opioid.
The different mediators were used at concentrations of 2 mM with 10 units laccase ml^−1 and 1000 mgL^−1 oxycodone. The first drop in oxygen concentration represents the oxidation of the respective mediators with the laccase, the second drop—which took place just after the addition of the opioid—was due to the subsequent oxidation of the opioid.

laccase [5] = assay: LMS and oxycodone: HPLC-MS/TOF measurements; settings: laccase mediator system
laccase [6] = assay: Thin layer chromatography of enzymatic conversion; type: biochemical; settings: samples at 2, 10, 30, 60, 120 minutes of enzymatic reaction
laccase MTL = assay: Polymerization of morphine with laccase from Myceliophthora thermophila (high concentrations); settings: 50 mM sodium phosphate buffer pH 7, MTL 10 U to 100 U
[7] = tested on: horseradish peroxidase and a laccase originating from Myceliophthora thermophila (MtL); assay: Inactivation of oxycodone with an enzyme system consisting of peroxidase/laccase; type: biochemical; settings: HRP 10 U/ml, Glucose Oxidase 20 U/ml, Laccase 25 U/ml, Oxycodone 10 mg/ml, Glucose 10 mg/ml, distilled water, room temperature
From the text: In the present example, the development of an appropriate enzyme system to eliminate opioids from solution can be shown. A peroxidase is used to produce an hydroxyl group in oxycodone while the such “activated” molecule is further transformed by the laccase. Moreover, optimized reaction conditions for effective conversion of the opioid solution preventing administration through injection are provided. Finally, the function of the system is verified by showing the inactivation of the opioid destroying enzymes proteolytically when the drugs are administered as foreseen.
To achieve the elimination of oxycodone, the following enzymes are used: the horseradish peroxidase and a laccase originating from Myceliophthora thermophila (MtL). Glucose Oxidase (GOD, from Aspergillus niger) is used to generate H2O2 which is required for the peroxidase reaction.
To determine whether the laccase act on activated oxycodone an optical oxygen sensor is used. Laccases use oxygen as electron acceptor, consequently the oxygen concentration decreases upon substrate oxidation.
500 μL samples are taken and put into 500 μL of methanol (MeOH) to precipitate the enzyme. The solution is centrifuged using Vivaspin 500 and transferred to an HPLC vial.

[8] = tested on: laccase from Myceliophthora thermophila (MtL); assay: Oxygen measurement of laccase catalysed oxidation of opioids (MtL); type: biochemical; settings: MtL 10 U/ml, substrate 2 mg/ml, distilled water, room temperature, optical oxygen sensor
From the text: (§1) Two different laccases were used to achieve elimination of opioids—one of them originated from Trametes villosa (TvL), the other one from Myceliophthora thermophila (MtL).

[9] = tested on: laccase from Trametes villosa (TvL); assay: Oxygen measurement of laccase catalysed oxidation of opioids (TvL); type: biochemical; settings: TvL 10 U/ml, substrate 2 mg/ml, distilled water, room temperature, optical oxygen sensor
From the text: as §1

pepsin = biological target: T2, pepsin (Sus scrofa, UniProt P00791); assay: Pepsin digestion assay in simulated gastric fluid with SDS-PAGE analysis; type: in vitro ADME; settings: SGF pH 1.2 with pepsin, 10000 Units pepsin per 1 mg test protein, 37° C., samples at 0, 0.5, 15 minutes
T2 construct: purchased Sigma-Aldrich (US) P7000
Experimental: SGF contains 0.084 M HCl, 0.035 M NaCl, 4000 U of pepsin per reaction mixture and has a pH level of 1.2 according to the United States Pharmacopeia (1995). A ratio of 10000 Units of pepsin activity to 1 mg of test protein was used throughout the assay, which is based on an evaluation of the average activity of pepsin recommended in the United States Pharmacopeia (24th edition, 2000) with some modifications. Pepsin (ref. #P7000) was purchased from Sigma-Aldrich (US). All proteins that were used were dissolved in 50 mM Tris-HCl (pH 9.5) at a concentration of 5 mg mL^−1. The reaction mixture contained 1.52 mL of SGF preheated to 37° C. before the addition of 0.08 mL of protein solution (Thomas et al., 2004). The mixture was placed into a thermomixer at 37° C. and was shaken at 400 rpm. For denaturating SDS-polyacrylamide gel electrophoresis analysis (SDS-PAGE) samples of 160 μl were removed at 0 minutes, 0.5 minutes, and 15 minutes after initiation.
SDS-PAGE was performed to analyze and visually inspect stained protein bands whether the protein band is still intact or fragmented after the digestion assay. […]
Each 160 μl of the digestion samples was quenched by adding 56 μl of 200 mM NaHCO3 as neutralization step and 56 μl 4× Laemmli (Laemmli 1970) buffer for electrophoresis. Samples were immediately heated up to 99° C. for 10 minutes and analyzed directly or stored at −20° C. […]

T2 sequence (P00791 60-385): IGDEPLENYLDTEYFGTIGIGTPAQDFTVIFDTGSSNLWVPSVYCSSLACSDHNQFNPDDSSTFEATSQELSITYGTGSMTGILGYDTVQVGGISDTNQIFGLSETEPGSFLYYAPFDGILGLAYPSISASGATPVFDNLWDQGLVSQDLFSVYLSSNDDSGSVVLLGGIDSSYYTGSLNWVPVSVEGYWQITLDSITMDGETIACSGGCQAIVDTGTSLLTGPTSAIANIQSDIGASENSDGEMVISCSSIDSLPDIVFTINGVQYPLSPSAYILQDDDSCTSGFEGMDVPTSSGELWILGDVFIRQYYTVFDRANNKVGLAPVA

## CCC(=O)C(CC(C)N(C)C)(c1ccccc1)c1ccccc1 (racemic) [methadone, (±)-6-dimethylamino-4,4-diphenol-3-heptanone]
Laccase [1]; mediator ABTS
  oxygen concentration in LMS with methadone: decline in oxygen concentration

## CCn1c(=NN=c2sc3cc(S(=O)(=O)O)ccc3n2CC)sc2cc(S(=O)(=O)O)ccc21 [ABTS, 2,2′-azino-bis-(3-ethylbenzthiazoline-6-sulfonic acid)]
Laccase [1]; mediators tested incl. syringic acid, TEMPO, syringol, ABTS
  effect of the mediator in LMS with methadone (oxygen measurement): best effect

## CC(=O)Oc1ccc2c3c1O[C@H]1[C@@H](OC(C)=O)C=C[C@H]4[C@@H](C2)N(C)CC[C@@]341 [diacetylmorphine]
[2]
  DAM concentration: declines
  morphine concentration formed from DAM: only increased in the samples that were incubated at 50 °C
  product formed from DAM at lower temperatures: only monoacetylmorphine is produced
[2]; pH 7
  diacetylmorphine hydrolyzed (total acetate yield, HPLC/RI): more than 50%
[3]
  DAM concentration: declines
  morphine concentration formed from DAM: only increased in the samples that were incubated at 50 °C
  product formed from DAM at lower temperatures: only monoacetylmorphine is produced
[3]; pH 7
  diacetylmorphine hydrolyzed (total acetate yield, HPLC/RI): more than 50%

## CCOc1cc(C=O)ccc1O [ethylvanillin]
Laccase [4]
  oxygen concentration after the addition of oxycodone, per mediator: showed a drop in oxygen concentration

## O=C(O)c1cc(O)c(O)c(O)c1 [gallic acid]
Laccase [5]
  effect of the mediator on oxycodone (MS-TOF analysis): no apparent effect
Laccase [4]
  oxygen concentration after the addition of oxycodone, per mediator: no apparent effect

## CN1CC[C@]23c4c5ccc(O)c4O[C@H]2[C@@H](O)C=C[C@H]3[C@H]1C5 [morphine, 4,5[alpha]-epoxy-17-methyl-7-morphinen-3,6[alpha]-diol]
Laccase [6]
  time after which new dots appear on the TLC plate (new product formed): 2 min
Laccase MTL
  faster degradation of morphine with 10 times more laccase: ~10 times

## COc1ccc2c3c1O[C@H]1C(=O)CC[C@@]4(O)[C@@H](C2)N(C)CC[C@]314 [oxycodone, 4,5[alpha]-epoxy-14-hydroxy-3-methoxy-17-methyl-6-morphinanone]
[7]
  enzymatic conversion of oxycodone (oxygen consumption measurements, HPLC-MS): successfully converted; also recorded: converted to a product which precipitated
[8]
  oxygen concentration in solution (laccase oxidation of the opioid): not capable of converting oxycodone
[9]
  oxygen concentration in solution (laccase oxidation of the opioid): not capable of converting oxycodone
Laccase [5]; mediators 2 mM, vanillin also 6 mM
  oxycodone concentration (HPLC-MS/TOF): decrease in oxycodone concentration
Laccase [4]; mediators vanillin, ethylvanillin, syringic acid 2 mM
  oxidation of oxycodone in the laccase mediator system: oxidation of oxycodone

## COc1cc(C(=O)O)cc(OC)c1O [syringic acid]
Laccase [4]
  oxygen concentration after the addition of oxycodone, per mediator: showed a drop in oxygen concentration

## CC[C@@H](c1cccc(O)c1)[C@@H](C)CN(C)C [tapentadol]
Laccase [6]
  time after which new dots appear on the TLC plate (new product formed): 2 min
  time after which the reference dot disappears on TLC (all converted): 120 min
[8]
  oxygen concentration in solution (laccase oxidation of the opioid): much slower
[9]
  oxygen concentration in solution (laccase oxidation of the opioid): drops to almost 0% oxygen

## COc1cc(C=O)ccc1O [vanillin]
Laccase [4]
  oxygen concentration after the addition of oxycodone, per mediator: showed a drop in oxygen concentration

## HRP: horse radish peroxidase
pepsin
  proteolytic degradation of the enzyme (protein band on SDS-PAGE): very susceptible to proteolytic degradation
